“Also recorded” adds a separate entry of the source. Read-outs that look alike come from different tables or passages of the source.
How the values were obtained:
protein kinase C (PKC) = type: biochemical, mouse; details: for % Activity of PKC: relative to TPA positive control; for activation of PKC (in words): concentration not given
Experimental: After addition of 0.55 nM [γ-^32 P] ATP (50×10^3 cpm/nmol), the reaction mixture was mixed and allowed to be kept at 37° C. for 30 minutes. Then the reactions were terminated by the addition of 10 μl of ice-cold stop reagent. Aliquots of 35 μL were transferred to the center of peptide binding discs. After 10 minutes, the discs were washed two times with 75 mM orthophosphoric acid. The activity of ^32 P-labeled samples was counted in 10/mL of a scintillation fluid for 1 minute. […] Blank (in the absence of PKC) and control (in the absence of TPA or tested samples) were also carried out. One unit of PKC was defined as that amount of enzyme, which incorporated 1 nmol of phosphate from ATP into its substrate, peptide, per minute under the assay conditions, described above.

[1] = Cell growth / viability of MT-4 cells (cytotoxicity); type: cell-based; details: human, day 5, read-out: CC0 (concentration that reduces viability of MT-4 cells; minimum cytotoxic concentration)
Experimental: (§1) In the experiments, MT-4 cells were used. The cells were incubated at 37° C. under 5% CO2 in RPMI-1640 medium (FCS, Flow laboratories, North Ryde, Australia) supplemented with 100 μg/mL of streptomycin (Meiji Seika, Tokyo, Japan), and 100 U/mL of penicillin G (Banyu Pharmaceutical, Tokyo, Japan).
(§2) The inhibitory effect of test compounds on HIV-1-induced cytopathogenicity was measured by the method of Harada, Koyanagi & Yamamoto (1985). MT-4 cells were infected for 1 hour with HIV-1 (at TCID50 of 0.001/well) and non-adsorbed virus was removed by washing. Then, the cells were resuspended in RPMI-1640 medium at a concentration of 1.5×10^5 cells/mL. A 200 μL/well of the cell suspension was cultured for 5 days in days in a 96-well culture plate containing various concentrations (12 doses, maximum 1,000 μg/mL and minimum […]) of the test compounds. Control assays were performed in the absence of test compounds with HIV-1-infected and uninfected cultures. On day 5, the IC100 of the test compound required for completely preventing HIV-1-induced CPE(IC) was determined through an optical microscope and the cell growth was examined to give the CC0 that reduces the viability of MT-4 cells.

HIV-1 = experiment: Inhibition of HIV-1-induced cytopathic effect (CPE) in MT-4 cells; type: cell-based, HIV-1 (LAV-1) in human MT-4 cells; details: MT-4 cells; for IC100: Human immunodeficiency virus 1, MT4, 120 h; for r = CC0/IC100: 7200 min; for CPE inhibitory effect (in words): HIV-1
Experimental: as §1
HIV-1 was obtained from culture supernatant of MOLT-4 cells that had been persistently infected with LAV-1.
j) Assay of cytopathic effect(CPE) of HIV-1 in MT-4 cells
as §2
A variety of phorbol esters and related compounds were tested for their ability to inhibit the replication and infectivity of HIV-1 in MT-4 cells, a human CD4-positive cell line continually infected with HTLV-1, and the results are presented in Table 3.

[2] = 10 ng/mL (standard concentration)
[3] = 5 days, NE: Not effective, read-out: Anti-HIV-1 IC100 (complete prevention of HIV-1-induced CPE)

CCCCC/C=C\C/C=C\CCCCCCCC(=O)OCC1=C[C@H]2[C@@H]3C(C)(C)[C@]3(OC(C)=O)[C@H](O)[C@@H](C)[C@]2(O)[C@@H]2C=C(C)C(=O)[C@@]2(O)C1 [Compound 1, 13-O-Acetylphorbol-20-(9Z,12Z-octadecadienoate)]
PKC activation (in words) (protein kinase C (PKC); [2]): did not activate PKC | % Activity of PKC (protein kinase C (PKC); 10 ng/mL): 0% | MCC at 120 h [1]: 62.5 µg/mL | IC100 (HIV-1; [3]): 15.6 µg/mL | r = CC0/IC100 (HIV-1): 4.01

C/C=C(\C)C(=O)O[C@@]12[C@H](O)[C@@H](C)[C@@]3(O)[C@@H](C=C(COC(=O)CCCCCCC/C=C\C/C=C\CCCCC)C[C@]4(O)C(=O)C(C)=C[C@@H]34)[C@@H]1C2(C)C [Compound 2, 13-O-Tigloylphorobol-20-(9Z,12Z-octadecadienoate)]
% Activity of PKC (protein kinase C (PKC); 10 ng/mL): 14% | % Activity of PKC (protein kinase C (PKC); 2.7 μg/mL): 32% | MCC at 120 h [1]: 62.5 µg/mL | IC100 (HIV-1; [3]): 7.81 µg/mL | Anti-HIV-1 IC100 (complete prevention of HIV-1-induced CPE) (HIV-1; 5 days, NE: Not effective): 7.8 µg/mL | r = CC0/IC100 (HIV-1): 8.00

C/C=C(\C)C(=O)O[C@@]12[C@H](OC(C)=O)[C@@H](C)[C@@]3(O)[C@@H](C=C(CO)C[C@]4(O)C(=O)C(C)=C[C@@H]34)[C@@H]1C2(C)C [Compound 3, 12-O-Acetylphorbol-13-tigliate]
% Activity of PKC (protein kinase C (PKC); 10 ng/mL): 16% | % Activity of PKC (protein kinase C (PKC); 2.7 μg/mL): 30% | activation of PKC (in words) (protein kinase C (PKC)): weak activation of PKC | MCC at 120 h [1]: 500 µg/mL | IC100 (HIV-1; [3]): 125 µg/mL | CPE inhibitory effect (in words) (HIV-1): weak inhibitory effects against CPE | r = CC0/IC100 (HIV-1): 4.00

CCCCCCCCCC(=O)O[C@@H]1[C@@H](C)[C@@]2(O)[C@@H](C=C(CO)C[C@]3(O)C(=O)C(C)=C[C@@H]23)[C@@H]2C(C)(C)[C@]12OC(=O)C(C)CC (some centres unmarked) [Compound 4, 12-O-Decanoylphorbol-13-(2-methylbutyrate)]
PKC activation (in words) (protein kinase C (PKC); 10 ng to 2.7 μg/mL): no activation | % Activity of PKC (protein kinase C (PKC); 10 ng/mL): 0% | % Activity of PKC (protein kinase C (PKC); 2.7 μg/mL): 0% | activation of PKC (in words) (protein kinase C (PKC)): did not show any activation of PKC | MCC at 120 h [1]: 31.3 µg/mL | IC100 (HIV-1; [3]): 7.81 µg/mL | Anti-HIV-1 IC100 (complete prevention of HIV-1-induced CPE) (HIV-1; 5 days, NE: Not effective): 7.8 µg/mL | r = CC0/IC100 (HIV-1): 4.01

C/C=C(\C)C(=O)O[C@@H]1[C@@H](C)[C@@]2(O)[C@@H](C=C(CO)C[C@]3(O)C(=O)C(C)=C[C@@H]23)[C@@H]2C(C)(C)[C@]12OC(=O)C(C)CC (some centres unmarked) [Compound 5, 12-O-Tigioylphorbol-13-(2-methylbutyrate)]
% Activity of PKC (protein kinase C (PKC); 10 ng/mL): 10% | % Activity of PKC (protein kinase C (PKC); 2.7 μg/mL): 40% | activation of PKC (in words) (protein kinase C (PKC)): weak activation of PKC | MCC at 120 h [1]: 62.5 µg/mL | IC100 (HIV-1; [3]): 31.3 µg/mL | CPE inhibitory effect (in words) (HIV-1): weak inhibitory effects against CPE | r = CC0/IC100 (HIV-1): 2.00

CCCCCCCCCC(=O)O[C@@]12[C@H](OC(C)=O)[C@@H](C)[C@@]3(O)[C@@H](C=C(CO)C[C@]4(O)C(=O)C(C)=C[C@@H]34)[C@@H]1C2(C)C [Compound 6, 12-O-Acetylphorbol-13-decanoate]
% Activity of PKC (protein kinase C (PKC); 10 ng/mL): 0% | PKC activation (in words) (protein kinase C (PKC); 100 ng/mL): No activation of PKC was observed | % Activity of PKC (protein kinase C (PKC); 2.7 μg/mL): 17% | PKC activation (in words) (protein kinase C (PKC); 10 to 100 ng/mL): no activation; also recorded: did not activate PKC | MCC at 120 h [1]: 62.5 µg/mL | IC100 (HIV-1; [3]): 0.0076 µg/mL | IC100 (HIV-1; read-out: IC100 (complete inhibition of CPE)): 0.0076 µg/mL | r = CC0/IC100 (HIV-1): 8220

CCCCCCCCCCCC(=O)O[C@@]12[C@H](OC(=O)C(C)CC)[C@@H](C)[C@@]3(O)[C@@H](C=C(CO)C[C@]4(O)C(=O)C(C)=C[C@@H]34)[C@@H]1C2(C)C (some centres unmarked) [Compound 7, 12-O-(2-Methylbutyroyl)phorbol-13-dodecanoate]
% Activity of PKC (protein kinase C (PKC); 10 ng/mL): 16% | % Activity of PKC (protein kinase C (PKC); 2.7 μg/mL): 30% | MCC at 120 h [1]: 62.5 µg/mL | IC100 (HIV-1; [3]): 15.6 µg/mL | r = CC0/IC100 (HIV-1): 4.01

CC(=O)OCC1=C[C@H]2[C@@H]3C(C)(C)[C@]3(OC(C)=O)[C@H](OC(C)=O)[C@@H](C)[C@]2(O)[C@@H]2C=C(C)C(=O)[C@]2(OC(C)=O)C1 [Compound 23, 4α-Phorbol-4,12,13,20-tetraacetate]
PKC activation (in words) (protein kinase C (PKC); [2]): did not activate PKC | % Activity of PKC (protein kinase C (PKC); 10 ng/mL): 0% | PKC activation (in words) (protein kinase C (PKC); high concentrations): enhanced activation of PKC | CPE inhibitory effect (in words) (HIV-1): showed no effect

— patent US6268395A, “Phorbol derivatives having antivirus activity” (Lead Chemical Co., Ltd., priority 1999, dated 2001)
